Structures are written as SMILES. A value given as a limit tells only on which side of the number the result lay.

By IC50 is commonly meant the concentration needed to halve the response being measured.

The test system of the test is IL-1β release upon NLRP3 activation in peripheral blood mononuclear cells (PBMC). Put plainly: PBMC IC50 Determination Assay. It is filed as cell-based. The note with it: Homo sapiens; LPS-primed PBMC, 30 min compound, stimulated with ATP (5 mM) or nigericin (10 μM) for 1 h; IL-1β ELISA; read-out: PBMC IC50. (An ELISA detects its analyte on a solid surface through an enzyme-linked reagent.)
On to `CCOC(=O)C(Cn1cccn1)OC(=O)Nc1c(C)csc1C` (centres unmarked) [Compound 99, Ethyl 2-{[(2,4-dimethylthiophen-3-yl)carbamoyl]oxy}-3-(1H-pyrazol-1-yl)propanoate], for which the concentration for half-maximal inhibition (IC50) was 100 to 1000 nM.

For `CCOC(=O)C(Cn1cccn1)OC(=O)Nc1c2c(cc3c1OCC3)OCC2` (centres unmarked) [Compound 100, Ethyl 2-[({4,10-dioxatricyclo[7.3.0.0^3,7]dodeca-1,3(7),8-trien-2-yl}carbamoyl)oxy]-3-(1H-pyrazol-1-yl)propanoate], the IC50 lay within 1000 to 10000 nM.

Turning to `CCOC(=O)[C@@H](COCCOC)OC(=O)Nc1c2c(cc3c1CCC3)CCC2` [Compound 101, Ethyl (2R)-2-{[(1,2,3,5,6,7-hexahydro-indacen-4-yl)carbamoyl]oxy}-3-(2-methoxyethoxy)propanoate], the IC50 lay in the range of 100 to 1000 nM.

`CCOC(=O)[C@@H](COC1CCOCC1)OC(=O)Nc1c2c(cc3c1CCC3)CCC2` [Compound 102, Ethyl (2R)-2-{[(1,2,3,5,6,7-hexahydro-s-indacen-4-yl)carbamoyl]oxy}-3-(oxan-4-yloxy)propanoate]: the IC50 lay in the range of 100 to 1000 nM.

Regarding `CCOC(=O)[C@@H](Cn1ncnc1C)OC(=O)Nc1c2c(cc3c1CCC3)CCC2` [Compound 103, Ethyl (2R)-2-{[(1,2,3,5,6,7-hexahydro-s-indacen-4-yl)carbamoyl]oxy}-3-(5-methyl-1H-1,2,4-triazol-1-yl)propanoate], the IC50 was in the range of 10 to 100 nM. With `CCOC(=O)[C@@H](COC(C)C)OC(=O)Nc1c2c(cc3c1CCC3)CCC2` [Compound 104, Ethyl (2R)-2-{[(1,2,3,5,6,7-hexahydro-s-indacen-4-yl)carbamoyl]oxy}-3-(propan-2-yloxy)propanoate], the IC50 lay within 1000 to 10000 nM. Then `CCOC(=O)[C@@H](Cn1cnc(C)n1)OC(=O)Nc1c2c(cc3c1CCC3)CCC2` [Compound 105, Ethyl (2R)-2-{[(1,2,3,5,6,7-hexahydro-s-indacen-4-yl)carbamoyl]oxy}-3-(3-methyl-1H-1,2,4-triazol-1-yl)propanoate], with 10 to 100 nM; and `O=C(Nc1c2c(cc3c1CCC3)CCC2)O[C@H](Cc1ncccn1)C(=O)O` [Compound 106, (2R)-2-{[(1,2,3,5,6,7-hexahydro-s-indacen-4-yl)carbamoyl]oxy}-3-(pyrimidin-2-yl)propanoic acid], with 100 to 1000 nM. `O=C(Nc1c2c(cc3c1CCC3)CCC2)O[C@H](Cc1cnccn1)C(=O)O` [Compound 109, (2R)-2-{[(1,2,3,5,6,7-hexahydro-s-indacen-4-yl)carbamoyl]oxy}-3-(pyrazin-2-yl)propanoic acid]: the IC50 is 100 to 1000 nM. Then `O=C(Nc1c2c(cc3c1CCC3)CCC2)O[C@H](Cc1cnccn1)C(=O)OC1CCCC1` [Compound 111, Cyclopentyl (2R)-2-{[(1,2,3,5,6,7-hexahydro-s-indacen-4-yl)carbamoyl]oxy}-3-(pyrazin-2-yl)propanoate], with under 10 nM. Take `N#Cc1cnn(C[C@@H](OC(=O)Nc2c3c(cc4c2CCC4)CCC3)C(=O)OC2CCCC2)c1` [Compound 113, Cyclopentyl (2R)-3-(4-cyano-1H-pyrazol-1-yl)-2-{[(1,2,3,5,6,7-hexahydro-s-indacen-4-yl)carbamoyl]oxy}propanoate]: the IC50 is under 10 nM. Turning to `O=C(Nc1c2c(cc3c1CCC3)CCC2)O[C@H](Cn1cncn1)C(=O)O` [Compound 114, (2R)-2-{[(1,2,3,5,6,7-hexahydro-s-indacen-4-yl)carbamoyl]oxy}-3-(1H-1,2,4-triazol-1-yl)propanoic acid], the IC50 was 100 to 1000 nM. As for `O=C(Nc1c2c(cc3c1CCC3)CCC2)O[C@H](Cn1cncn1)C(=O)OC1CCCC1` [Compound 116, Cyclopentyl (2R)-2-{[(1,2,3,5,6,7-hexahydro-s-indacen-4-yl)carbamoyl]oxy}-3-(1H-1,2,4-triazol-1-yl)propanoate], the IC50 is under 10 nM. Regarding `Cc1cncc(CC(OC(=O)Nc2c3c(cc4c2CCC4)CCC3)C(=O)OC(C)C)n1` (centres unmarked) [Compound 117, Propan-2-yl 2-{[(1,2,3,5,6,7-hexahydro-s-indacen-4-yl)carbamoyl]oxy}-3-(6-methylpyrazin-2-yl)propanoate], the IC50 is under 10 nM. With `CC1CCCC(NC(=O)OC(Cc2ncccn2)C(=O)OC(C)C)C1` (centres unmarked) [Compound 118, Propan-2-yl 2-{[(3-methylcyclohexyl)carbamoyl]oxy}-3-(pyrimidin-2-yl)propanoate], the IC50 was in the range of 1000 to 10000 nM.

Consider `CC(C)OC(=O)C(Cc1cnc(C#N)cn1)OC(=O)Nc1c2c(cc3c1CCC3)CCC2` (centres unmarked) [Compound 119, Propan-2-yl 3-(5-cyanopyrazin-2-yl)-2-{[(1,2,3,5,6,7-hexahydro-s-indacen-4-yl)carbamoyl]oxy}propanoate], for which the IC50 is under 10 nM. Turning to `Cc1nccc(CC(OC(=O)Nc2c3c(cc4c2CCC4)CCC3)C(=O)OC(C)C)n1` (centres unmarked) [Compound 120, Propan-2-yl 2-{[(1,2,3,5,6,7-hexahydro-s-indacen-4-yl)carbamoyl]oxy}-3-(2-methylpyrimidin-4-yl)propanoate], the IC50 fell in the range of 10 to 100 nM. The value for `Cc1cnc(CC(OC(=O)Nc2c3c(cc4c2CCC4)CCC3)C(=O)OC(C)C)cn1` (centres unmarked) [Compound 121, Propan-2-yl 2-{[(1,2,3,5,6,7-hexahydro-s-indacen-4-yl)carbamoyl]oxy}-3-(5-methylpyrazin-2-yl)propanoate] was 10 to 100 nM. In the case of `CC(C)OC(=O)C(Cc1ncccn1)OC(=O)NC1(C)CCCCC1` (centres unmarked) [Compound 122, Propan-2-yl 2-{[(1-methylcyclohexyl)carbamoyl]oxy}-3-(pyrimidin-2-yl)propanoate], the IC50 is over 10000 nM. As for `CC(C)OC(=O)C(Cc1ncccn1)OC(=O)Nc1c(F)cccc1Cl` (centres unmarked) [Compound 123, Propan-2-yl 2-{[(2-chloro-6-fluorophenyl)carbamoyl]oxy}-3-(pyrimidin-2-yl)propanoate], the IC50 was 100 to 1000 nM. With `CC(C)OC(=O)C(Cc1ncccn1)OC(=O)Nc1c(F)cccc1F` (centres unmarked) [Compound 124, Propan-2-yl 2-{[(2,6-difluorophenyl)carbamoyl]oxy}-3-(pyrimidin-2-yl)propanoate], the IC50 was in the range of 100 to 1000 nM. Then `CC(C)OC(=O)C(Cc1ncccn1)OC(=O)Nc1c(Cl)cccc1Cl` (centres unmarked) [Compound 125, Propan-2-yl 2-{[(2,6-dichlorophenyl)carbamoyl]oxy}-3-(pyrimidin-2-yl)propanoate], with 1000 to 10000 nM; and `CC(C)OC(=O)[C@@H](Cn1cnc(C#N)n1)OC(=O)Nc1c2c(cc3c1CCC3)CCC2` [Compound 126, Propan-2-yl (2R)-3-(3-cyano-1H-1,2,4-triazol-1-yl)-2-{[(1,2,3,5,6,7-hexahydro-s-indacen-4-yl)carbamoyl]oxy}propanoate], with 10 to 100 nM; and `CC(C)OC(=O)C(Cc1ncccn1)OC(=O)NC12CCC(CC1)CC2` (centres unmarked) [Compound 127, Propan-2-yl 2-[({bicyclo[2.2.2]octan-1-yl}carbamoyl)oxy]-3-(pyrimidin-2-yl)propanoate], with 1000 to 10000 nM. Then `CC(C)OC(=O)C(Cc1ccnnc1)OC(=O)Nc1c2c(cc3c1CCC3)CCC2` (centres unmarked) [Compound 128, Propan-2-yl 2-{[(1,2,3,5,6,7-hexahydro-s-indacen-4-yl)carbamoyl]oxy}-3-(pyridazin-4-yl)propanoate], with 100 to 1000 nM; and `CC(C)OC(=O)C(Cc1ncc(C#N)cn1)OC(=O)Nc1c2c(cc3c1CCC3)CCC2` (centres unmarked) [Compound 130, Propan-2-yl 3-(5-cyanopyrimidin-2-yl)-2-{[(1,2,3,5,6,7-hexahydro-s-indacen-4-yl)carbamoyl]oxy}propanoate], with 10 to 100 nM.

Source of the values: US12247011B2, “Selective inhibitors of NLRP3 inflammasome” (NodThera Limited, priority 2017, dated 2025).
